Drawing on ChEMBL document CHEMBL1145929, “Syntheses and binding studies of new [(aryl)(aryloxy)methyl]piperidine derivatives and related compounds as potential antidepressant drugs with high affinity for serotonin (5-HT) and norepinephrine (NE) transporters” (J Med Chem, 2003), this text covers IC50 and Ki for 15 molecules.

Bounds are passed on as bounds.

The target in assay [1] is T1, Sodium-dependent serotonin transporter (Rattus norvegicus, UniProt P31652). Put plainly: Binding affinity against serotonin transporter (SERT) by displacement of [3H]paroxetine in male wistar rats. Background: Loss of bound radioactivity is the signal in a displacement assay; it reports binding, not function.
T1 sequence (P31652 whole entry): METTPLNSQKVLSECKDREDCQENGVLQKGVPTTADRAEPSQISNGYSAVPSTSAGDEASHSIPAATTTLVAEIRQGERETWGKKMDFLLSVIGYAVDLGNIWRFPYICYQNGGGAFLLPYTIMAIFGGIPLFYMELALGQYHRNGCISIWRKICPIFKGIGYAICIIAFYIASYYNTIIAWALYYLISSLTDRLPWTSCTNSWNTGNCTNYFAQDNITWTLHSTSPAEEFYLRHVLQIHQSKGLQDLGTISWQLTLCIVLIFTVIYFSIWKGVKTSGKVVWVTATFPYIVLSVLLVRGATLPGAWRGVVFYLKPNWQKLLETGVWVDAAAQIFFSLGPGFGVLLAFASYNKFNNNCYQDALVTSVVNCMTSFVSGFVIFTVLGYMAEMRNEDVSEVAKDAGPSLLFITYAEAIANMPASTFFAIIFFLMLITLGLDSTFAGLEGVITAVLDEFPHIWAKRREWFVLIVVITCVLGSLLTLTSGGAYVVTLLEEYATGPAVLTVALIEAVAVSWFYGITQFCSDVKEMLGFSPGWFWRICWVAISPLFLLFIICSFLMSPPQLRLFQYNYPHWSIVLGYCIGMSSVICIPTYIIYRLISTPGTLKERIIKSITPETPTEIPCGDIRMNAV
Assay [2] concerns the target T2, 5-hydroxytryptamine receptor 2A (Rattus norvegicus, UniProt P14842). Put plainly: Binding affinity against 5-hydroxytryptamine 2A receptor by displacement of [3H]ketanserin from rat prefrontal cerebral cortex mambranes. The class given is tissue-based, Frontal cortex.
Assay [3] has as its target T3, 5-hydroxytryptamine receptor 1A (Rattus norvegicus, UniProt P19327).
T3 sequence (P19327 whole entry): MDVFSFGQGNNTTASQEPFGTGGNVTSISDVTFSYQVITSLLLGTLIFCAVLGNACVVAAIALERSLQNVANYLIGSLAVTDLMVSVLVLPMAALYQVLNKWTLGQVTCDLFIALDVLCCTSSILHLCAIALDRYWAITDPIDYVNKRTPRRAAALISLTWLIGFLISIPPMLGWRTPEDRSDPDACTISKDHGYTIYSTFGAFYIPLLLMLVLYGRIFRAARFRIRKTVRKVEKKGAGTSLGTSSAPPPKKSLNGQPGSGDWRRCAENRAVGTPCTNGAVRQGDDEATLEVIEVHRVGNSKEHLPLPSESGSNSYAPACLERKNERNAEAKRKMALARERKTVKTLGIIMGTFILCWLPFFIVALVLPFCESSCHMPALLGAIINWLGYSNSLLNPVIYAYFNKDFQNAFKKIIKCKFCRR
The assay can be described thus: Displacement of [3H]8-OH-DPAT from 5-hydroxytryptamine 1A receptor of rat hippocampus mambranes. The class given is tissue-based.

The target of assay [4] is T1, Sodium-dependent serotonin transporter. The assay can be described thus: Binding affinity against serotonin transporter (SERT) by displacement of [3H]paroxetine in male wistar rat.
Assay [5] has as its target Norepinephrine transporter (Rattus norvegicus, UniProt Q9WTR4). Put plainly: Binding affinity against norepinephrine transporter (NET) by displacement of [3H]nisoxetine in male wistar rats.
In assay [6] the target is T2, 5-hydroxytryptamine receptor 2A. Put plainly: Binding affinity against 5-hydroxytryptamine 2A receptor by displacement of [3H]-ketanserin from rat prefrontal cerebral cortex mambranes. The class given is tissue-based, Frontal cortex.
Assay [7] deals with T1, Sodium-dependent serotonin transporter. Put plainly: Binding affinity to the serotonin transporter (SERT) measured by displacement of [3H]paroxetine in male wistar rats.
In assay [8] the target is Sodium-dependent dopamine transporter (Rattus norvegicus, UniProt P23977). The assay can be described thus: Binding affinity against dopamine transporter (DAT) by displacement of [3H]WIN-35428 in male wistar rats.
Chain of Sodium-dependent dopamine transporter (P23977 whole entry): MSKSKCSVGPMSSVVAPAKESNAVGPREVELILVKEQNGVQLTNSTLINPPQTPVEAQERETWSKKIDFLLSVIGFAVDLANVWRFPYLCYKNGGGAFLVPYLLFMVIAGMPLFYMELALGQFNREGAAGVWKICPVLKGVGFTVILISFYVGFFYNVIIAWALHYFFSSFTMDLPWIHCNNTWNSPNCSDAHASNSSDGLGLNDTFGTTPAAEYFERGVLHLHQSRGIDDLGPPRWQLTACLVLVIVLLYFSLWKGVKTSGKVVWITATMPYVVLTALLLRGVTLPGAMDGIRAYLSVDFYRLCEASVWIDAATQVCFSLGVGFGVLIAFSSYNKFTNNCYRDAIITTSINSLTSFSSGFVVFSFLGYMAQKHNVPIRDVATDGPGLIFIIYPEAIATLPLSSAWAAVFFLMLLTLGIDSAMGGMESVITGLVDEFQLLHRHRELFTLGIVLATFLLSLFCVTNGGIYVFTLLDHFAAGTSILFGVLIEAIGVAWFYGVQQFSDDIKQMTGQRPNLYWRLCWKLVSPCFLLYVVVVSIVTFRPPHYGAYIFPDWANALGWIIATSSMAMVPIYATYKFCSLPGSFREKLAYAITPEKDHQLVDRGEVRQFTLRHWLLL
Assay [9] addresses T3, 5-hydroxytryptamine receptor 1A. The assay can be described thus: Binding affinity against 5-hydroxytryptamine 1A receptor (5-HT1A) by displacement of [3H]8-OH-DPAT from rat hippocampus membranes. The class given is cell membranes, Membrane.

Chain of Norepinephrine transporter (Q9WTR4 whole entry): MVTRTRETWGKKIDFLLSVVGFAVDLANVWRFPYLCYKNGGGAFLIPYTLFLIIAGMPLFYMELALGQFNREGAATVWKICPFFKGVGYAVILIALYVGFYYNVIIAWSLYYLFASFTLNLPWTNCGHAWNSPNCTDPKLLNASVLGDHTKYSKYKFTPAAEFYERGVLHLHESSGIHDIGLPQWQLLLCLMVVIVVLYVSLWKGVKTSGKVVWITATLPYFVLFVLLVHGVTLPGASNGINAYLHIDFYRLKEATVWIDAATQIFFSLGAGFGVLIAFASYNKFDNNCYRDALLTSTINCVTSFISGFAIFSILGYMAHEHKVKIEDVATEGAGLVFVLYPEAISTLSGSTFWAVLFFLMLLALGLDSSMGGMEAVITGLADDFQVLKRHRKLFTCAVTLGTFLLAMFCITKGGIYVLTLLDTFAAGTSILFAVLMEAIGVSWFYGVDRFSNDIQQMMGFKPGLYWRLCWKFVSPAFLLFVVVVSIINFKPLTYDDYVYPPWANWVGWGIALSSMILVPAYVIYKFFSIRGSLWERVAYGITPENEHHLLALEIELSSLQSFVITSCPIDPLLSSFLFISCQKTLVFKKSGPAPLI
T2 sequence (P14842 whole entry): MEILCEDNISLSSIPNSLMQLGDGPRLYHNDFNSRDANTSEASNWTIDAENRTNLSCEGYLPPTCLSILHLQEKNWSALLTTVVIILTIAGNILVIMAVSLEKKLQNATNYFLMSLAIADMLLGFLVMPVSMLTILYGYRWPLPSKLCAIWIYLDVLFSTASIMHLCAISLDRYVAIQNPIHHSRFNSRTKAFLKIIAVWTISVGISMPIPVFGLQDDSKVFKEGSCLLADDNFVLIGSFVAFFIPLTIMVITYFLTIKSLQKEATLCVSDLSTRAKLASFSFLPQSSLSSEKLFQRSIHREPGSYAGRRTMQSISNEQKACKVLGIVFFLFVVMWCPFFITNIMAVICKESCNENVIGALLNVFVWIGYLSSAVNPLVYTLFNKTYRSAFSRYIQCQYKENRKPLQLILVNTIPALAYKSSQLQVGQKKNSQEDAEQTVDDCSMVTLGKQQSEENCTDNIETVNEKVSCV

By IC50 is commonly meant the concentration needed to halve the response being measured. As usually defined, the Ki is a dissociation constant, usually derived from enzyme kinetics or from competition with a known ligand. A lower Ki goes with higher affinity. For `FC(F)(F)c1ccccc1OC(CCN1CCN(c2nsc3ccccc23)CC1)c1ccccc1` (stereo not drawn), in [1], the IC50 is more than 1000 nM. The results for the Ki in [2] and in assay [3] were 24.1 nM and 446 nM, respectively.

In the case of `FC(F)(F)c1ccc(OC(CCN2CCN(c3nsc4ccccc34)CC2)c2ccccc2)cc1` (stereo not drawn), the IC50 in assay [1] is more than 1000 nM. The Ki in assay [2] was determined as 40.2 nM; in assay [3], 33.7 nM.

With `Fc1ccccc1OC(CCN1CCN(c2nsc3ccccc23)CC1)c1ccccc1` (stereo not drawn), the IC50 in assay [4] was more than 1000 nM. Also, the Ki in [2] worked out at 5.3 nM; in [3], 70.2 nM.

Molecule `O=[N+]([O-])c1ccc(OC(CCN2CCN(c3n[o+][c-]4ccccc34)CC2)c2ccccc2)cc1` (stereo not drawn) came in with an IC50 in assay [1] of more than 1000 nM. Also, the Ki in assay [2] came to 53.3 nM; in assay [3] it was 254 nM.

For `COc1ccc(OC(CCN2CCN(c3noc4ccccc34)CC2)c2ccccc2)cc1` (stereo not drawn), in assay [1], the IC50 was more than 1000 nM. Further, the Ki stood at 18.9 nM in [2] and 182 nM in assay [3].

In turn, `COc1ccc(OC(CCN2CCN(c3nsc4ccccc34)CC2)c2ccccc2)cc1` (stereo not drawn) showed an IC50 in [1] of more than 1000 nM. The Ki in [2] is 10.2 nM; in assay [3] it was 69.7 nM.

In the case of `O=C(CCC(Oc1ccccc1F)c1ccccc1)C1CCN(c2ccc(F)cc2)CC1` (stereo not drawn), in assay [1], the IC50 was more than 1000 nM. Besides, the Ki was 8 nM in assay [2] and 37.8 nM in assay [3].

In turn, `Fc1ccccc1OC(CCN1CCN(c2noc3ccccc23)CC1)c1ccccc1` (stereo not drawn) gave an IC50 in assay [1] of more than 1000 nM. In addition, the values for the Ki in assay [2] and in assay [3] were 17.2 nM and 118 nM, respectively.

Molecule `COc1ccc(OC(CCC(=O)C2CCN(c3ccc(F)cc3)CC2)c2ccccc2)cc1` (stereo not drawn) had an IC50 in assay [1] of more than 1000 nM. Moreover, the results for the Ki in [2] and in assay [3] were 53.8 nM and 93.6 nM, respectively.

With `Nc1ccc(OC(CCC(=O)C2CCN(c3ccc(F)cc3)CC2)c2ccccc2)cc1` (stereo not drawn), in assay [1], the IC50 was more than 1000 nM. Further, the Ki in assay [2] was 16.4 nM; in assay [3], 108 nM.

For `Brc1ccc(OC(c2ccccc2)C2CCNCC2)cc1` (single isomer, unassigned; (-)), the concentration for half-maximal inhibition (IC50) in assay [5] was more than 500 nM; in assay [6], more than 1000 nM; in assay [8] it was more than 1000 nM; in assay [9], more than 1000 nM. Also, the affinity in assay [7], expressed as Ki, was 5.7 nM.

With `c1ccc(C(Oc2cccc3ccccc23)C2CCNCC2)cc1` (stereo in doubt; (-)-15au), the IC50 in assay [5], in assay [6], in assay [8] and in [9] was more than 1000 nM in each case. This molecule also registered a Ki in assay [7] of 28.1 nM.

With `CCCN(CCC)C1CCc2cccc(O)c2C1` (stereo not drawn) [8-OH-DPAT], the IC50 in assay [5], in assay [6], in assay [1] and in assay [8] was more than 1000 nM each time.

As for `OC1(c2ccc(Cl)cc2)c2ccccc2C2=NCCN21` (stereo not drawn) [MAZINDOL], the results for the Ki in assay [5], in [7] and in assay [8] were 0.8 nM, 248 nM and 44.3 nM, respectively. The IC50 in [6] and in assay [9] was more than 1000 nM in each case.

Turning to `CN1CCN2c3ncccc3Cc3ccccc3C2C1` (stereo not drawn) [MIRTAZAPINE], the IC50 in assay [5], in assay [1], in [8] and in assay [9] was more than 1000 nM throughout.
